Reference: US20090176811A1, “Substituted 5,6,7,8-Tetrahydro-pyrido[4,3-d]pyrimidine-2-yl Compounds and 5,6,7,8-Tetrahydro-quinazoline-2-yl Compounds” (GRUENENTHAL GmbH, priority 2004, published 2009)

tested on: batrachotoxin (BTX) binding site of the sodium channel; assay: Affinity for the batrachotoxin (BTX) binding site of the sodium channel ([3H]-Batrachotoxinin A20 benzoate, rat cerebrocortex synaptosomes); conditions: [3H]-Batrachotoxinin A20 benzoate 10 nM, test concentration not given

SMILES	BTX inhibition
O=C(Nc1ncc2c(n1)CCN(S(=O)(=O)c1cccs1)C2)c1ccc(F)c(F)c1 [Example 72, 3,4-difluoro-N-[6-(thiophene-2-sulfonyl)-5,6,7,8-tetrahydro-pyrido[4,3-d]pyrimidin-2-yl]-benzamide]	31
O=C(Nc1ncc2c(n1)CCN(C(=O)CCCCc1ccccc1)C2)c1ccccc1 [Example 190, N-[6-(5-phenyl-pentanoyl)-5,6,7,8-tetrahydro-pyrido[4,3-d]pyrimidin-2-yl]-benzamide]	56
O=C(Nc1ncc2c(n1)CCN(C(=O)c1sc3ccccc3c1Cl)C2)c1cccs1 [Example 110, thiophene-2-carboxylic acid [6-(3-chloro-benzo[b]thiophene-2-carbonyl)-5,6,7,8-tetrahydro-pyrido[4,3-d]pyrimidin-2-yl]-amide]	40
O=C(Nc1ncc2c(n1)CCN(C(=O)c1cccc(F)c1)C2)c1cccc2ccccc12 [Example 183, naphthalene-1-carboxylic acid [6-(3-fluoro-benzoyl)-5,6,7,8-tetrahydro-pyrido[4,3-d]pyrimidin-2-yl]-amide]	31
Cc1cccc(C(=O)Nc2ncc3c(n2)CCN(S(=O)(=O)c2sc(C)nc2C)C3)c1 [Example 68, N-[6-(2,4-dimethyl-thiazole-5-sulfonyl)-5,6,7,8-tetrahydro-pyrido[4,3-d]pyrimidin-2-yl]-3-methyl-benzamide]	35
CCCCC(C)CCC(=O)N1CCc2nc(NC(=O)c3cccc4ccccc34)ncc2C1 (centres unmarked) [Example 193, naphthalene-1-carboxylic acid [6-(4-methyl-octanoyl)-5,6,7,8-tetrahydro-pyrido[4,3-d]pyrimidin-2-yl]-amide]	84
CCc1ccc(C(=O)Nc2ncc3c(n2)CCN(S(=O)(=O)c2ccc(OC)cc2)C3)cc1 [Example 172, 4-ethyl-N-[6-(4-methoxy-benzenesulfonyl)-5,6,7,8-tetrahydro-pyrido[4,3-d]pyrimidin-2-yl]-benzamide]	57
O=C(Nc1ncc2c(n1)CCC(NS(=O)(=O)c1cc(Cl)sc1Cl)C2)c1cccs1 (centres unmarked) [Example 180, thiophene-2-carboxylic acid [6-(2,5-dichloro-thiophene-3-sulfonylamino)-5,6,7,8-tetrahydro-quinazolin-2-yl]-amide]	46
COc1cccc(C(=O)Nc2ncc3c(n2)CCN(C(=O)c2cccc(OC(F)(F)F)c2)C3)c1 [Example 199, 3-methoxy-N-[6-(3-trifluoromethoxy-benzoyl)-5,6,7,8-tetrahydro-pyrido[4,3-d]pyrimidin-2-yl]-benzamide]	48
CCc1ccc(C(=O)Nc2ncc3c(n2)CCN(C(=O)c2ccc(-n4cccn4)cc2)C3)cc1 [Example 74, 4-ethyl-N-[6-(4-pyrazol-1-yl-benzoyl)-5,6,7,8-tetrahydro-pyrido[4,3-d]pyrimidin-2-yl]-benzamide]	66
O=C(Nc1ncc2c(n1)CCN(C(=O)CCC1CCCC1)C2)c1ccncc1 [Example 132, N-[6-(3-cyclopentyl-propionyl)-5,6,7,8-tetrahydro-pyrido[4,3-d]pyrimidin-2-yl]-isonicotinamide]	72
CCOc1ccccc1C(=O)Nc1ncc2c(n1)CCN(C(=O)c1sccc1Cl)C2 [Example 145, N-[6-(3-chloro-thiophene-2-carbonyl)-5,6,7,8-tetrahydro-pyrido[4,3-d]pyrimidin-2-yl]-2-ethoxy-benzamide]	46
O=C(Nc1ncc2c(n1)CCN(S(=O)(=O)c1ccc(OC(F)(F)F)cc1)C2)c1ccc(Cl)c(Cl)c1 [Example 134, 3,4-dichloro-N-[6-(4-trifluoromethoxy-benzenesulfonyl)-5,6,7,8-tetrahydro-pyrido[4,3-d]pyrimidin-2-yl]-benzamide]	64
Cc1ccc(S(=O)(=O)N2CCc3nc(NC(=O)c4cccc(F)c4)ncc3C2)cc1 [Example 143, 3-fluoro-N-[6-(toluene-4-sulfonyl)-5,6,7,8-tetrahydro-pyrido[4,3-d]pyrimidin-2-yl]-benzamide]	61
CCOc1ccccc1C(=O)Nc1ncc2c(n1)CCN(S(=O)(=O)c1ccccc1C(=O)OC)C2 [Example 82, 2-[2-(2-ethoxy-benzoylamino)-7,8-dihydro-5H-pyrido[4,3-d]pyrimidine-6-sulfonyl]-benzoic acid methyl ester]	38
O=C(Nc1ncc2c(n1)CCN(C(=O)Cc1ccc(Cl)cc1)C2)c1ccc(Cl)c(Cl)c1 [Example 126, 3,4-dichloro-N-{6-[2-(4-chloro-phenyl)-acetyl]-5,6,7,8-tetrahydro-pyrido[4,3-d]pyrimidin-2-yl}-benzamide]	70
COc1ccccc1C(=O)Nc1ncc2c(n1)CCN(S(=O)(=O)c1c(C)cc(OC)c(C)c1C)C2 [Example 158, 2-methoxy-N-[6-(4-methoxy-2,3,6-trimethyl-benzenesulfonyl)-5,6,7,8-tetrahydro-pyrido[4,3-d]pyrimidin-2-yl]-benzamide]	74
Cc1ccc(C(=O)Nc2ncc3c(n2)CCN(S(=O)(=O)c2cc(F)ccc2C)C3)cc1 [Example 107, N-[6-(5-fluoro-2-methyl-benzenesulfonyl)-5,6,7,8-tetrahydro-pyrido[4,3-d]pyrimidin-2-yl]-4-methyl-benzamide]	73

SMILES	BTX inhibition
O=C(Nc1ncc2c(n1)CCN(C(=O)c1sc3ccccc3c1Cl)C2)c1ccccc1 [Example 120, N-[6-(3-chloro-benzo[b]thiophene-2-carbonyl)-5,6,7,8-tetrahydro-pyrido[4,3-d]pyrimidin-2-yl]-benzamide]	48
O=C(Nc1ncc2c(n1)CCN(C(=O)c1ccc(-c3cccs3)cc1)C2)c1cc(Cl)cc(Cl)c1 [Example 144, 3,5-dichloro-N-[6-(4-thiophen-2-yl-benzoyl)-5,6,7,8-tetrahydro-pyrido[4,3-d]pyrimidin-2-yl]-benzamide]	81
CCCC(=O)Nc1ncc2c(n1)CCC(NC(=O)C=Cc1cccc(C(F)(F)F)c1)C2 (centres unmarked) [Example 168, N-(2-butyrylamino-5,6,7,8-tetrahydro-quinazolin-6-yl)-3-(3-trifluoromethyl-phenyl)-acrylamide]	39
CCCCCC(=O)NC1CCc2nc(NC(=O)c3ccc(F)cc3)ncc2C1 (centres unmarked) [Example 128, 4-fluoro-N-(6-hexanoylamino-5,6,7,8-tetrahydro-quinazolin-2-yl)-benzamide]	33
O=C(Nc1ncc2c(n1)CCN(C(=O)c1c(F)cccc1Cl)C2)c1cccc(Cl)c1 [Example 127, 3-chloro-N-[6-(2-chloro-6-fluoro-benzoyl)-5,6,7,8-tetrahydro-pyrido[4,3-d]pyrimidin-2-yl]-benzamide]	30
Cc1cc(C)c(S(=O)(=O)N2CCc3nc(NC(=O)c4ccc(Cl)c(Cl)c4)ncc3C2)c(C)c1 [Example 95, 3,4-dichloro-N-[6-(2,4,6-trimethyl-benzenesulfonyl)-5,6,7,8-tetrahydro-pyrido[4,3-d]pyrimidin-2-yl]-benzamide]	77
O=C(Nc1ncc2c(n1)CCN(C(=O)C1=Cc3ccccc3OC1)C2)c1ccc(F)c(F)c1 [Example 175, N-[6-(2H-chromene-3-carbonyl)-5,6,7,8-tetrahydro-pyrido[4,3-d]pyrimidin-2-yl]-3,4-difluoro-benzamide]	49
Cc1cc(C)c(C)c(S(=O)(=O)N2CCc3nc(NC(=O)c4cccs4)ncc3C2)c1C [Example 99, thiophene-2-carboxylic acid [6-(2,3,5,6-tetramethyl-benzenesulfonyl)-5,6,7,8-tetrahydro-pyrido[4,3-d]pyrimidin-2-yl]-amide]	78
Cc1cccc(C(=O)Nc2ncc3c(n2)CCN(S(=O)(=O)c2cccc(C)c2)C3)c1 [Example 116, 3-methyl-N-[6-(toluene-3-sulfonyl)-5,6,7,8-tetrahydro-pyrido[4,3-d]pyrimidin-2-yl]-benzamide]	53
CCc1ccc(C(=O)Nc2ncc3c(n2)CCN(S(=O)(=O)c2ccsc2)C3)cc1 [Example 121, 4-ethyl-N-[6-(thiophene-3-sulfonyl)-5,6,7,8-tetrahydro-pyrido[4,3-d]pyrimidin-2-yl]-benzamide]	57
Cc1ccc(C(=O)Nc2ncc3c(n2)CCN(C(=O)c2ccc(SC(F)(F)F)cc2)C3)cc1 [Example 148, 4-methyl-N-[6-(4-trifluoromethylsulfanyl-benzoyl)-5,6,7,8-tetrahydro-pyrido[4,3-d]pyrimidin-2-yl]-benzamide]	85
O=C(CCc1ccccc1)NC1CCc2nc(NC(=O)c3ccc(F)cc3)ncc2C1 (centres unmarked) [Example 94, 4-fluoro-N-[6-(3-phenyl-propionylamino)-5,6,7,8-tetrahydro-quinazolin-2-yl]-benzamide]	47
Cc1nc(C)c(S(=O)(=O)N2CCc3nc(NC(=O)c4ccc(Cl)cc4)ncc3C2)s1 [Example 79, 4-chloro-N-[6-(2,4-dimethyl-thiazole-5-sulfonyl)-5,6,7,8-tetrahydro-pyrido[4,3-d]pyrimidin-2-yl]-benzamide]	34
CC(C)(C)c1ccc(C(=O)Nc2ncc3c(n2)CCN(C(=O)c2csc4ccccc24)C3)cc1 [Example 184, N-[6-(benzo[b]thiophene-3-carbonyl)-5,6,7,8-tetrahydro-pyrido[4,3-d]pyrimidin-2-yl]-4-tert-butyl-benzamide]	87
CCc1ccc(C(=O)Nc2ncc3c(n2)CCN(C(=O)c2ccc(Cl)c(Cl)c2)C3)cc1 [Example 101, N-[6-(3,4-dichloro-benzoyl)-5,6,7,8-tetrahydro-pyrido[4,3-d]pyrimidin-2-yl]-4-ethyl-benzamide]	68
O=C(Nc1ncc2c(n1)CCN(C(=O)c1ccc3ccccc3c1)C2)c1ccc(Cl)cc1 [Example 69]	64
COc1ccccc1C(=O)Nc1ncc2c(n1)CCN(C(=O)COCc1ccccc1)C2 [Example 195, N-[6-(2-benzyloxy-acetyl)-5,6,7,8-tetrahydro-pyrido[4,3-d]pyrimidin-2-yl]-2-methoxy-benzamide]	35
